Test results from paper PMC5976250 (The Biochemical journal, 2017).

Assays:
[1] = system: full-length Cx45 (mCx45-Rluc) interaction with Venus–CaM; test: BRET assay of CaM–Cx45 interaction in live HEK293 cells; assay type: cell-based, mouse (Cx45); rat (CaM); details: 50 μM BAPTA-AM
[2] = system: electrical uncoupling (gap junctions), amphibian embryonic cells, crayfish axons; details: cited from earlier work; for effect on uncoupling: Xenopus embryonic cells, ref [73], crayfish axons, ref [74],[75]
CaM [3] = molecular target: T1, CaM (Rattus norvegicus, UniProt P0DP29); details: earlier connexin peptide studies; ref [49]; cited from earlier work
CaM [4] = details: α-family; ref [34],[49]; cited from earlier work
CaM [5] = molecular target: T1, CaM; details: complex formation; ref [49]; listed as Cx50-derived peptide; cited from earlier work

CC(=O)OCOC(=O)CN(CC(=O)OCOC(C)=O)c1ccccc1OCCOc1ccccc1N(CC(=O)OCOC(C)=O)CC(=O)OCOC(C)=O [BAPTA-AM]
intracellular Ca2+ after treatment [1]: ~ 0.27 nM | BRET signal (ratio 525/460 nm) after treatment ([1]; 20 min): ~ 0.03

Cl.NCCCCCCNS(=O)(=O)c1cccc2c(Cl)cccc12 [W7, N-(6-aminohexyl)-5-chloro-1-naphthalenesulfonamide hydrochloride]
effect on uncoupling [2]: prevent uncoupling

Clc1ccc(C(c2ccc(Cl)cc2)n2cc[n+](CC(OCc3ccc(Cl)cc3Cl)c3ccc(Cl)cc3Cl)c2)cc1 (centres unmarked) [calmidazolium]
effect on uncoupling [2]: prevent uncoupling

CN1CCN(CCCN2c3ccccc3Sc3ccc(C(F)(F)F)cc32)CC1 [trifluoperazine (TFP), trifluoperazine]
effect on electrical uncoupling of amphibian embryonic cells ([2]; ref [72]): protected amphibian embryonic cells from electrical uncoupling

Cx43p136–158: α-family connexin Cx43 peptide
chemical shift change pattern of CaM (literature) (CaM [3]): localized change | binding mode to CaM (literature) (CaM [4]): compact form

Cx44p132–153: α-family connexin Cx44 peptide
binding mode to CaM (literature) (CaM [4]): compact form

Cx50p141–166: α-family connexin Cx50 peptide (FRLEGTLLRTYICHIIFKTLFEVGFI; UniProt P48165 141-166, looked up, fragment)
decrease in hydrodynamic radius of CaM (CaM [5]): decreased significantly | chemical shift change pattern of CaM (literature) (CaM [3]): localized change | binding mode to CaM (literature) (CaM [4]): embraced compact form
